Entries after “also recorded” stand apart in the source; their conditions may differ.

Here are results for two compounds from patent US20240148691A1, “Treatment of Hypertension-Related and Vascular Diseases” (The Medical College of Wisconsin, Inc., priority 2021, published 2024).

The subject of one series is afferent arterioles. Kind of series: Renal microvascular responses in streptozotocin-induced diabetic rats. It counts as in vivo, rat. The note with it: for renal microvascular responses: diabetic animals. The source says: (§1) The inventors hypothesized that SHetA2 would be effective in preventing and treating diabetic nephropathy. Therefore, the inventors treated rats with diabetes induced by streptozotocin (STZ) with SHetA2. […] (FIGS. 20-21).

A short description of series [1]: Blood pressure and body weight during long-term treatment of hypertensive rats. It counts as in vivo, rat. How it is done: To assess whether treatment with SHetA2 would reduce the systolic blood pressure in hypertensive rats, animals were treated for 18 weeks with either vehicle control or SHetA2.
(§2) SS rats were weaned at 3 weeks of age and transferred to 1% salt diet for additional 3 weeks before treatment. At 6 weeks of age, rats were either given vehicle control or SHetA2 at 60 mg/kg by oral gavage. Oral gavage was performed 3 times weekly every other day for a period of 18 weeks. […] Urine was collected from rats housed in metabolic cages for 1-2 hours, approximately 24 hours after last treatment after 6, 12 and 18 weeks of treatment. […] Vascular reactivity of renal afferent arterioles was measured using the juxtamedullary nephron technique approximately 24 hours after final treatment (18 weeks) (FIG. 7).

For series [2], the system named is renal afferent preglomerular arterioles. Kind of series: Renal afferent preglomerular arteriole microvascular responses, SHetA2 added in vitro. Also noted: species or system rat. The source says:
(§3) Microvascular responses of renal afferent preglomerular arterioles to perfused pressure. Juxtamedullary nephron vasculature was isolated, and an afferent arteriole was monitored continuously by videomicroscopy. SS/BN2 refers to BN chromosome replacement into SS background. Thus, SS/BN2 are not expected to be salt-sensitive and represent a control for the SS strain.
Microvascular reactivity of renal blood vessels is reduced in two major causes of end stage renal disease: hypertension-induced nephropathy (HN) and diabetic nephropathy. One of the highlights of vascular dysfunction in HN is the loss of autoregulation of blood resistance vessels. Using rat model of salt-sensitive (SS) HN we have previously shown that overexpression of adaptor protein p66Shc is implicated in the loss of microvascular reactivity during the progression of HN (FIGS. 3, 5). In HN p66Shc is over-expressed in vascular smooth muscle cells of the walls of renal resistance arteries, including afferent arteriole (FIG. 4). p66Shc knockout restores the ability of afferent arteriole to contract in response to increased perfusion pressure and ATP (FIG. 5) and mitigates glomerular damage in SS rats on 1% salt diet. In this study, we tested ability of a flexible heteroarotinoid called Sulfur Heteroarotinoid A2 (SHetA2, pronounced Ess-Het-Aye-Two), known to inhibit p66Shc action, to prevent development and restore renal microvascular responses in hypertensive rats when added after the development of hypertension-induced nephropathy. […] Remarkably, SHetA2 prevented loss of microvascular reactivity and restored renal microvascular responses in hypertensive rats, as detected by response of afferent arterioles either to increasing perfusion pressure or to ATP, known mediator of afferent arteriolar autoregulatory responses (FIG. 6).

The next series deals with diabetic nephropathy. Kind of series: Urinary protein excretion in diabetic animals. It is filed as in vivo, rat.
Excerpt: as §1

The test system of series [3] is renal afferent arterioles. Kind of series: Renal afferent arteriole microvascular responses (juxtamedullary nephron technique) after chronic treatment of hypertensive SS rats. It is filed as in vivo, rat. How it is done: as §3
Vascular reactivity of renal afferent arterioles was measured using the juxtamedullary nephron technique approximately 24 hours after final treatment (18 weeks) (FIG. 9). Remarkably, SHetA2 restored renal microvascular responses in hypertensive rats, as detected by response of afferent arterioles either to increasing perfusion pressure or to ATP, known mediator of afferent arteriolar autoregulatory responses (FIG. 8).
as §2

The conditions of series [4]: cited from earlier work.
Series [5] deals with hypertension-induced nephropathy. Kind of series: Urinary protein excretion in salt-sensitive hypertensive rats. It counts as in vivo, rat. On the procedure: as §2
Hypertension-induced nephropathy causes excessive protein excretion in the urine.

Another series has as its system KATP channels. Kind of series: Glibenclamide-induced arteriole constriction in diabetic rats. Also noted: species or system rat. The source says: The inventors hypothesized that SHetA2 acts by inhibiting p66Shc-induced activation of KATP channels in diabetic animals. Therefore, the inventors treated control and SHetA2 treated arterioles with increasing concentrations of glibenclamide, antidiabetic drug which binds and inhibits the ATP-sensitive potassium channel's KATP inhibitory subunit which causes increasing of intracellular Ca^2+ concentrations leading to arteriole constriction.

With `CC1(C)CC(C)(C)c2cc(NC(=S)Nc3ccc([N+](=O)[O-])cc3)ccc2S1` [SHetA2, Sulfur Heteroarotinoid A2], in the series on afferent arterioles (STZ diabetic rats), the “development of microvascular damage” value is “successfully prevented”. In addition, the renal microvascular responses result in the series with afferent arterioles (acute treatment) was “increased”; with afferent arterioles (chronic treatment, oral gavage every other day), “increased”. For the same compound, the “signs of diabetic nephropathy (dilation of afferent arterioles)” value is “absence of effect” in the series on afferent arterioles (p66ShcKO rats treated with STZ) and “reduces or prevents” with afferent arterioles (rats treated with streptozotocin (STZ)). In addition, in series [1] (1% salt diet, long-term treatment), the “progression of hypertension / increase of blood pressure” value was “did not prevent; also recorded: lack of effect”. Further, the systolic blood pressure entry in series [1] (hypertensive rats, 18 weeks treatment vs vehicle) was “did not significantly reduce”. Moreover, the body weight result in series [1] (long-term treatment) is given as “lack of effect”. Besides, the “vessel diameter in response to SHetA2 treatment” value in series [2] (dose dependence (FIG. 14)) is “dose-dependent decrease”. In addition, in series [2] (in vitro, hypertensive rats (FIG. 6)), the “renal microvascular responses in renal afferent preglomerular arterioles” value is recorded as “partially restored”. The renal microvascular response result in series [2] (salt-sensitive rats with hypertension, dose dependence (FIG. 14)) is recorded as “dose-dependent increase”. In addition, the urinary protein excretion entry is “reduces or prevents” with diabetic nephropathy; “reduces or prevents” in series [5] (S36A salt-sensitive animals); “statistically significant decrease; also recorded: significantly reduces” in series [5] (wild type SS hypertensive rats, SHetA2 60 mg/kg oral gavage, vs control-treated rats, 60 mg/kg); “reduces or prevents” in series [5] (wild type SS hypertensive rats, SHetA2 60 mg/kg oral gavage, vs control-treated rats, listed as SHet2A). The “renal microvascular responses of afferent arterioles to increasing perfusion pressure or ATP” value in series [3] (hypertensive SS rats, 1% salt diet, SHetA2 60 mg/kg oral gavage 3 times weekly, 18 weeks, about 24 hours after final treatment, 60 mg/kg) is listed as “restored”. Also, the renal damage result in series [3] (hypertensive rats) is reported as “mitigates”. Besides, the “vessel diameter after chronic administration of SHetA2” value in series [3] (male and female rats (FIG. 17)) is reported as “decrease”. Besides, the “effect on heart function” value in series [4] (animal models, after months of treatment) is recorded as “does not have any detectable effect”. In addition, the “teratogenicity (birth defects)” value in series [4] (animal models) was “does not cause”. Further, in series [4] (oral, doses 25-fold above the doses used in the rat hypertensive model), the toxicity result is “no toxicity”.
As for `COc1ccc(Cl)cc1C(=O)NCCc1ccc(S(=O)(=O)NC(=O)NC2CCCCC2)cc1` [glibenclamide], in the series on KATP channels (control arterioles, increasing glibenclamide concentrations), the arteriole constriction result is on record as “caused constriction”. For the same compound, the “signs of diabetic nephropathy” value with KATP channels (diabetic p66ShcKO rats) is “not diabetic p66ShcKO rats”; with KATP channels (diabetic rats), “effective in attenuating”. Further, the “glibenclamide effect / arteriole constriction” value with KATP channels (diabetic rats / arterioles treated with SHetA2, increasing glibenclamide concentrations) was “not in SHetA2 treated arterioles; also recorded: lack of glibenclamide effect”.
